According to patent EP1600153A1, “Slow-release pharmaceutical composition allowing to monitor drug release” (Deutsches Krebsforschungszentrum Stiftung des öffentlichen …, priority 2004, dated 2005):

Columns and labels:
[1] = Subcutaneous injection of Gd-DTPA solution (control): 1H MR imaging at the site of injection; assay type: in vivo, rat
Experimental: Subcutaneous injection of 0.5 mcmol Gd-DTPA (along with 34 mcmol FLAMP), as a 1 ml-solution in an adult male rat (left flank). Transversal 1H MR images (slice thickness 2 mm) from the region of the injection, taken 85 min after injection. Images numbered in caudal-cranial direction.
(§1) A solution of the drug and the contrast agent was injected subcutaneously, followed by local MRS and MRI monitoring as in Example 2, in order to test whether either agent might be locally detectable even after release from the depot preparation. The injection volume (1 ml) and the amount of drug (FLAMP, 34 mcmoles) were the same as in Example 2 while the amount of contrast agent was doubled (Gd-DTPA, 0.5 mcmol).

[2] = course of plasma level corresponds to that after intravenous application; cited from earlier work
[3] = Subcutaneous liposome depot preparation in rats: amount of FLAMP at the site of injection by 19F-MRS in vivo; design: species or system Wistar rats
Experimental: 2 ml aqua bidest., 1,7 µl Magnevist™ and 200 mg Phospholipon™ 90H were added to a bottle for injection of Fludara™. The mixture was mixed by hand for 20 min. at room temperature. Then, the mixture was subjected to 6 cycles of vortexing for 2 min. and placing in a water bath at 64°C for 3 min.. Subsequently, the mixture was subjected to 6 cycles of holding in liquid nitrogen for 3 min. and placing in a water bath at 64°C for 6 min. Finally, the mixture was washed for four times with each of 10 ml phosphate buffer. After each washing step, the mixture was centrifuged for 15 min. at 10,000 x g. A colorless preparation having a consistency of a paste was obtained which was transferred to a syringe.
Adult male Wistar rats were bred in twos in isolators and received Altromin™ and water ad libitum. At day 1, in the morning rats were subcutaneously injected once with 1 ml of the pharmaceutical composition described in Example 1 into the right flank ("Luer"-canulla No.12 with screw thread). Injections and NMR-measurements were carried with rats which had been previously subjected to inhalation anesthesia (77% N2, 22% O2 and 1 - 1,2% Isofluran™) .
At day 1, in the morning (after the formulation had been injected) and in the afternoon, respectively, as well as at days 4, 13, 22, 29, 36 and 43 the following NMR-measurements were carried out: The amount of Fludarabin monophosphate (FLAMP) at the site of injection was determined by ^19F-MRS and the volume and the contrast intensity of the drug depot was measured by MRT.
A 1,5-T whole body tomograph(Magnetom Vision Plus, Siemens AG, Erlangen, Germany) was used for the NMR-measurements. For both, the ^19F-MRS and the ^1H-imaging a volume resonator which had been constructed by the DKFZ (resonance frequency: 63,6 MHz (^1H) , 59,9 MHz (^19F) with an inner diameter of 8.4 cm was used which served as transmitting- and receiving coil.
After the rats had been positioned (subcutaneous liposome depot in the middle of the resonator) the volume resonator was manually tuned to the ^1H resonance frequency. After "Shim" (optimization of field homogeneity) by use of the ^1H-tissue water resonance line and subsequent tuning of the coil to the ^19F resonance frequency the ^19F spectra were recorded. The reading sequence comprised a simple non-layer-specific pulsed excitation with subsequent recording of 1024 readings in 51.2 ms corresponding to the fast T2-decay of the FID. The recording period of TA = 33:21 min. resulted from a repetition time TR = 100 ms and a number of NEX = 20000 excitations.
In order to get a reference for the chemical shift and the signal intensity of FLAMP a 0.5 ml reference solution containing 400 mM NaF was applied to the middle of the underside of the volume resonator with the resonance of this solution being at about -40 ppm (with reference to TFA). The follow-up editing of the spectra was carried out by use of the software LUISE which is implemented to the tomograph. […] The relation of the integrals of the resonances of FLAMP to NaF served as a reference value for the individual readings. ^1H-imaging with high resolution was carried with a T1-weighted 3D-gradient-echo-method (3D-FLASH) with lipid saturation (parameters used for measurements: TR = 45 ms; TE = 11 ms; α = 30; FOV = 50 mm; matrix-size = 128 x 128; period of acquisition for the individual readings: 15,36 ms). Multiple transverse layer images of the liposome depots were recorded with layers having an actual thickness of 2, 1- and 0,4 mm, respectively. […]

[4] = Subcutaneous injection of FLAMP solution (control): 19F MRS in vivo at the site of injection; design: species or system rat
Experimental: Subcutaneous injection of 34 mcmol FLAMP, along with 0.5 mcmol Gd-DTPA, as a 1 ml-solution in an adult male rat, 19F MRS in vivo at the site of injection. Relative FLAMP signal (peak area of FLAMP / peak area of external NaF standard) versus time after injection.
as §1

Row | drug amounts injected still present at the site of injection ([3]; day 13 post injection, s.c. 1 ml liposome depot (Phospholipon, Fludara, Magnevist), 19F-NMR-spectroscopy) [%] | drug amounts injected still present at the site of injection ([3]; end of the experiment (day 43, six weeks), s.c. liposome depot) [%] | amounts of drug available for release, of the amounts initially injected ([3]; end of the period, about six weeks after subcutaneous injection of depot) [%] | time at which amount of FLAMP at the site of injection started to decrease continuously ([3]; s.c. liposome depot, 19F-MRS) | amounts of drug available for release, of the amounts initially injected ([3]; start of the period, about one week after subcutaneous injection of depot) [%] | 19F MRS signal from the drug at the site of injection ([4]; after 24 hours, s.c. solution, 34 mcmoles FLAMP) | disappearance of MRS signals from the drug itself or indistinguishable metabolites ([4]; drug injected as a solution) | drop of 19F MRS signal from the drug ([4]; within 5 hours after s.c. injection of solution, 34 mcmoles FLAMP) | Molecule | contrast enhancement at the site of injection (1H-images, 24 adjacent 2 mm layers) ([1]; 85 min after s.c. injection of solution, 0.5 mcmol Gd-DTPA) | area of remaining contrast enhancement ([1]; 85 min after s.c. injection of solution, 0.5 mcmol Gd-DTPA, three adjacent layers) | contrast enhancement left at the site of administration ([1]; one and a half hours after subcutaneous injection of Gd-DTPA solution) | absorption after subcutaneous application [2] | 19F MRS signal from the drug at the site of injection ([4]; 8 min after s.c. injection of solution, 34 mcmoles FLAMP in 1 ml)
1 |  |  |  |  |  |  |  |  | gadolinium-DPTA [Gd-DTPA] | only a faint diffuse contrast enhancement was detectable in three adjacent layers | about 212 mm | Almost no contrast enhancement was left |  | 
2 | 70 | 10 | 12 | About one week after injection | 70 | no longer detectable | disappear within a few hours | more than 90 | Nc1nc(F)nc2c1ncn2[C@@H]1O[C@H](COP(=O)(O)O)[C@@H](O)[C@@H]1O [FLAMP, Fludarabin-5'-monophosphate] |  |  |  | immediately absorbed | about the same as on day 1 after injecting the depot preparation
